Data as given in US20250332198A1, “TARGETED ELIMINATION OF SENESCENT CELLS BY GAMMA-DELTA T CELLS” (SENS RESEARCH FOUNDATION, priority 2022, published 2025).

Assays:
platelet = settings: risk of causing thrombocytopenia; cited from earlier work
macrophages = settings: as reported; cited from earlier work
[1] = target: T1, 3-hydroxy-3-methylglutaryl-CoA reductase (HMGCR) (Homo sapiens, UniProt P04035); assay: Mevalonate pathway inhibition in SC, effect on cytotoxicity by Vδ2 T cells; type: cell-based; settings: SC treated with the HMGCR inhibitor
T1 construct: endogenous in cells; host or cells: senescent cells (SC)
T1 sequence (P04035 1-888): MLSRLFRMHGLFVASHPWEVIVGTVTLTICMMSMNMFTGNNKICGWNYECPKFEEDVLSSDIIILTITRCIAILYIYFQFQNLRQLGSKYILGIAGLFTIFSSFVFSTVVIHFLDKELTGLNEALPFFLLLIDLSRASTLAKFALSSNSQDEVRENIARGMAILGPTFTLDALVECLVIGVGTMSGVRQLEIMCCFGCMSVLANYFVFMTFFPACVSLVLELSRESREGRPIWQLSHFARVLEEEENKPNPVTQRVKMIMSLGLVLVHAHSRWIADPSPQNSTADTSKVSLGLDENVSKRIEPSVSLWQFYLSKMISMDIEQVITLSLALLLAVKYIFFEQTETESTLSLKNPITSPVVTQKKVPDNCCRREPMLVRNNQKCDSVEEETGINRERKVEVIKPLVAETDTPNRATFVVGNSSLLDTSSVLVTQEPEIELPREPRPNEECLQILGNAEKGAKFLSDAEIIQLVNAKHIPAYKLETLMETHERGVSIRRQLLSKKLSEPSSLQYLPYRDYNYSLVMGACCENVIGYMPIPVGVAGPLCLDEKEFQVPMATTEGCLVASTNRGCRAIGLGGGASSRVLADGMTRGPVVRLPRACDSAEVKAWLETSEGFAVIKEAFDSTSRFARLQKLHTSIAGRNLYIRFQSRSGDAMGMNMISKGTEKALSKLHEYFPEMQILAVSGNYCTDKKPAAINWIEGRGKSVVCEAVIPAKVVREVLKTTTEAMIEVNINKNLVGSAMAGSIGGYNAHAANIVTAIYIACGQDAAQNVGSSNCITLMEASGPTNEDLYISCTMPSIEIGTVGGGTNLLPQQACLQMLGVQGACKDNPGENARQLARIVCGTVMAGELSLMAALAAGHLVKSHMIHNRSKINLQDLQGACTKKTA
Text: NKG2D recognizes target cells based on their surface expression of ligands such as MICA. […] Briefly, phosphoantigens such as IPP (an intermediate metabolite of mevalonate pathway) bind to the intracellular domain of BTN3A, leading to a conformational change in the extracellular domain that is recognized by γδTCR. […] To determine the role of mevalonate pathway, we inhibited the rate-limiting enzyme 3-hydroxy-3-methylglutaryl-CoA reductase (HMGCR) with mevastain in SC and tested the effect on cytotoxicity by Vδ2 T cells.

Compound	platelet toxicity (platelet)	effect on macrophages (macrophages)	effect on Vδ2 T cell-mediated cytotoxicity toward SC [1]	effect on Vδ2 T cell-mediated cytotoxicity toward SC ([1]; listed as mevastain)
CC1(C)CCC(c2ccc(Cl)cc2)=C(CN2CCN(c3ccc(C(=O)NS(=O)(=O)c4ccc(N[C@H](CCN5CCOCC5)CSc5ccccc5)c(S(=O)(=O)C(F)(F)F)c4)cc3)CC2)C1 [ABT263, navitoclax]	dose-limiting platelet toxicity	destroy macrophages		
O=c1c(O)c(-c2ccc(O)c(O)c2)oc2cc(O)ccc12 [fisetin]		destroy macrophages		
CC[C@H](C)C(=O)O[C@H]1CCC=C2C=C[C@H](C)[C@H](CC[C@@H]3C[C@@H](O)CC(=O)O3)[C@H]21 [mevastatin]			resistant to gamma delta T cells	significantly reduced Vδ2 T cell-mediated cytotoxicity
